Assay results reported in patent publication US4880825A, “Mitomycin derivatives” (Kyowa Hakko Kogyo Kabushiki Kaisha, priority 1987, dated 1989).
≈ marks a conversion by molar mass, not a printed value.

Columns and labels:
Leukemia P-388 = test: Effects upon Leukemia P-388 (survival of CDF1 mice implanted with P-388 cells); assay type: in vivo, mouse (CDF1); settings: abdominally once; for ILS(%) (Increased Life Span): 24 h after implantation, CDF1 mice, 33 days, ratio to untreated control survival; for ILS* (ratio of ILS % of test compound to ILS % of mitomycin C): relative to mitomycin C as control under the same conditions
Method: P-388 ascites tumour was abdominally implanted into a mouse (DBA/2). 7 days after this, ascitic fluid was collected from the tumour-carrying mouse. The number of P-388 cells was counted to prepare a cell suspension containing 5×10^6 cells/ml using a sterilized physiological saline solution. 0.2 ml of the cell suspension containing 1×10^6cells was abdominally implanted into each mouse of CDF1 strain (body weight 20-25 g). […] The effect of the test compound was evaluated with reference to the ILS % (Increased Life Span) (the ratio of the average survival days of the test animals to the average survival days of the control group of untreated animals). The following Table 5 indicates ILS* (the ratio of ILS % obtained using each of the test compounds to the corresponding ILS % obtained using mitomycin C as control under the same conditions).

[1] = Acute toxicity (LD50, Behrens-Koerber method); settings: mouse, in vivo, ip; ddy mice, abdominally administered once, 14 days observation
Method: From the death ratio of each test group of animals, acute toxicity (LD50) was calculated by the "Behrens-Koerber" method.

[2] = system: Staphylococcus aureus ATCC 6538P; test: Anti-bacterial activity, minimum inhibitory concentration by agar dilution method at pH 7.0 (SA); assay type: cell-based; settings: ATCC6538P
Text: (§1) In this table, the microorganisms are abbreviated as follows:
SA: Staphylococcus aureus ATCC 6538P

[3] = system: Streptococcus faecalis ATCC 10541; test: Anti-bacterial activity, minimum inhibitory concentration by agar dilution method at pH 7.0 (SF); assay type: cell-based; settings: Enterococcus faecalis, ATCC10541
Text: as §1
SF: Streptococcus faecalis ATCC 10541

[4] = system: Proteus vulgaris ATCC 6897; test: Anti-bacterial activity, minimum inhibitory concentration by agar dilution method at pH 7.0 (PV); assay type: cell-based; settings: ATCC6897
Text: as §1
PV: Proteus vulgaris ATCC 6897

[5] = system: Klebsiella pneumoniae ATCC 10031; test: Anti-bacterial activity, minimum inhibitory concentration by agar dilution method at pH 7.0 (KP); assay type: cell-based; settings: ATCC10031
Text: as §1
KP: Klebsiella pneumoniae ATCC 10031.

With `CO[C@@]12[C@H](COC(N)=O)C3=C(C(=O)C(C)C4(OCCO4)C3=O)N1C[C@@H]1N[C@@H]12` (stereo partly shown) [Compound 1, 7-demethoxy-6,7-dihydro-7-ethylenedioxymitomycin A] the “ILS(%) (Increased Life Span)” value (Leukemia P-388; dose 0.39 mg/kg) was 169%, the “ILS* (ratio of ILS % of test compound to ILS % of mitomycin C)” value (Leukemia P-388; dose 0.39 mg/kg) was 1.00 and the LD50 at 336 h [1] was 0.7 mg/kg. For the same compound, the MIC [2] was 0.039 µg/mL (≈ 0.103 µM), the MIC [3] was 0.078 µg/mL (≈ 0.206 µM) and the MIC [4] was 0.0098 µg/mL (≈ 0.0258 µM). The MIC [5] was 0.0049 µg/mL (≈ 0.0129 µM).

In the case of `CC1C(=O)C2=C(C(=O)C13OCCO3)[C@H](COC(N)=O)[C@@]1(O)[C@@H]3[C@H](CN21)N3C` (stereo partly shown) [Compound 2, 7-demethoxy-6,7-dihydro-7-ethylenedioxymitomycin B], the “ILS(%) (Increased Life Span)” value (Leukemia P-388; dose 5 mg/kg) is reported as 173%, the “ILS* (ratio of ILS % of test compound to ILS % of mitomycin C)” value (Leukemia P-388; dose 5 mg/kg) is reported as 1.06 and the LD50 at 336 h [1] is reported as 7.5 mg/kg. The MIC [2] was 2.5 µg/mL (≈ 6.59 µM), the MIC [3] was 2.6 µg/mL (≈ 6.85 µM) and the MIC [4] was 0.63 µg/mL (≈ 1.66 µM). The MIC [5] was 1.3 µg/mL (≈ 3.43 µM).

With `CO[C@@]12[C@H](COC(N)=O)C3=C(C(=O)C(C)C4(OCCO4)C3=O)N1C[C@H]1[C@@H]2N1C` (stereo partly shown) [Compound 3, 7-demethoxy-6,7-dihydro-7-ethylenedioxymitomycin F] the “ILS(%) (Increased Life Span)” value (Leukemia P-388; dose 2.5 mg/kg) was 153%, the “ILS* (ratio of ILS % of test compound to ILS % of mitomycin C)” value (Leukemia P-388; dose 2.5 mg/kg) was 0.77 and the LD50 at 336 h [1] was 4.5 mg/kg. For the same compound, the MIC [2] was 0.31 µg/mL (≈ 0.788 µM), the MIC [3] was 0.31 µg/mL (≈ 0.788 µM) and the MIC [4] was 0.63 µg/mL (≈ 1.6 µM). For the same compound, the MIC [5] was 0.31 µg/mL (≈ 0.788 µM).

For `CO[C@]12[C@@H]3[C@H](CN1C1=C(C(=O)C4(OCCO4)C(C)C1=O)[C@@H]2COC(N)=O)N3C` (stereo partly shown) [Compound 4, 7-demethoxy-6,7-dihydro-7-ethylenedioxymitomycin J], the “ILS(%) (Increased Life Span)” value (Leukemia P-388; dose 5 mg/kg) was 180%, the “ILS* (ratio of ILS % of test compound to ILS % of mitomycin C)” value (Leukemia P-388; dose 5 mg/kg) was 1.16 and the LD50 at 336 h [1] was 6 mg/kg. It also gave an MIC [2] of 0.63 µg/mL (≈ 1.6 µM), an MIC [3] of 0.31 µg/mL (≈ 0.788 µM) and an MIC [4] of 0.63 µg/mL (≈ 1.6 µM). The MIC [5] was 0.31 µg/mL (≈ 0.788 µM).

For `CO[C@@]12[C@H](COC(N)=O)C3=C(C(=O)C(C)(Cl)C4(OCCO4)C3=O)N1C[C@@H]1N[C@@H]12` (stereo partly shown) [Compound 8, 6-chloro-7-demethoxy-6,7-dihydro-7-ethylenedioxymitomycin A], the “ILS(%) (Increased Life Span)” value (Leukemia P-388; dose 1.56 mg/kg) was greater than 164%, the “ILS* (ratio of ILS % of test compound to ILS % of mitomycin C)” value (Leukemia P-388; dose 1.56 mg/kg) was greater than 0.93 and the LD50 at 336 h [1] was 3.75 mg/kg. For the same compound, the MIC [2] was 0.039 µg/mL (≈ 0.0942 µM), the MIC [3] was 1.3 µg/mL (≈ 3.14 µM) and the MIC [4] was 1.3 µg/mL (≈ 3.14 µM). For the same compound, the MIC [5] was 0.039 µg/mL (≈ 0.0942 µM).

With `CN1[C@H]2[C@@H]1CN1C3=C(C(=O)C4(OCCO4)C(C)(Cl)C3=O)[C@H](COC(N)=O)[C@@]21O` (stereo partly shown) [Compound 9, 6-chloro-7-demethoxy-6,7-dihydro-7-ethylenedioxymitomycin B] the “ILS(%) (Increased Life Span)” value (Leukemia P-388; dose 12.5 mg/kg) was 159%, the “ILS* (ratio of ILS % of test compound to ILS % of mitomycin C)” value (Leukemia P-388; dose 12.5 mg/kg) was 1.13 and the LD50 at 336 h [1] was 15 mg/kg. It also gave an MIC [2] greater than 40 µg/mL, an MIC [3] of 10 µg/mL (≈ 24.2 µM) and an MIC [4] greater than 40 µg/mL. The MIC [5] was 5 µg/mL (≈ 12.1 µM).

Work on `CO[C@@]12[C@H](COC(N)=O)C3=C(C(=O)C(C)(Br)C4(OCCO4)C3=O)N1C[C@H]1[C@@H]2N1C` (stereo partly shown) [Compound 10, 6-bromo-7-demethoxy-6,7-dihydro-7-ethylenedioxymitomycin F] yielded an MIC [2] of 0.63 µg/mL (≈ 1.33 µM), an MIC [3] of 2.5 µg/mL (≈ 5.29 µM) and an MIC [4] of 5 µg/mL (≈ 10.6 µM). It also gave an MIC [5] of 5 µg/mL (≈ 10.6 µM).
